From patent US20250197372A1 (priority 2020, published 2025)
pIC50: −log10 of the molar value. Like-named read-outs stand apart in the source and are kept apart here.

Columns and labels:
Type in all cases: biochemical
[1] = molecular target: T1, recombinant alpha-glucosidase I (human full-length glucosidase I, Glu 1) (Homo sapiens, UniProt Q13724); assay: Alpha-glucosidase I assay (Amplex Red glucose detection, synthetic trisaccharide substrate)
T1 construct: 6-His (C); made in house; host or cells: HEK-293T cells transduced with BacMam virus (virus raised in Sf9)
T1 sequence (Q13724 1-837): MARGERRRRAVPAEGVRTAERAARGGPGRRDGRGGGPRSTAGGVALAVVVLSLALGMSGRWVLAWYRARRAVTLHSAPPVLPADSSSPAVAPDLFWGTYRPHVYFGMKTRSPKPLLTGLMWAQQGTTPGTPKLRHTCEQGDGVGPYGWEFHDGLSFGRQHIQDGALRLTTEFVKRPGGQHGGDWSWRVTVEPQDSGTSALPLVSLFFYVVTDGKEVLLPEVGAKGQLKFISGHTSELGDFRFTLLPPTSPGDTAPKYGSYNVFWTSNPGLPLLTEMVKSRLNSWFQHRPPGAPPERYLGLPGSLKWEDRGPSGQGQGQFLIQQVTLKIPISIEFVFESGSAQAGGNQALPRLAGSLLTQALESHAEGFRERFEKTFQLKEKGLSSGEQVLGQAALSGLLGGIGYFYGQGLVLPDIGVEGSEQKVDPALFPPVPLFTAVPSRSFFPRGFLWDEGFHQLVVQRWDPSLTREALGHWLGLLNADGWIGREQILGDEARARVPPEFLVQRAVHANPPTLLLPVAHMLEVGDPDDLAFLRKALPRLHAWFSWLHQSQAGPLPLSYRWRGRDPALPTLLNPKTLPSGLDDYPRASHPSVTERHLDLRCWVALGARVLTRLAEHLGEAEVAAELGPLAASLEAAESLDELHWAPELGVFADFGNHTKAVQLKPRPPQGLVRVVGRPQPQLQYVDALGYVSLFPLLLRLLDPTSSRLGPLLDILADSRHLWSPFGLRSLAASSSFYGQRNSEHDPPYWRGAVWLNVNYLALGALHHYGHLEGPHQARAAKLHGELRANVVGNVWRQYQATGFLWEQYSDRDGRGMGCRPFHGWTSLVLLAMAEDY
Excerpt: Preparation of Human Full-length Glucosidase I: The amino acid sequence for human full-length glucosidase I was obtained from UniProt (Q13724). […] The entry vector was cloned into Kemp Proteins' BacMam Destination vector and transformed into chemically competent DH10Bac E. coli cells to produce recombinant glucosidase I bacmids. Bacmid isolates were obtained following two rounds of blue-white screening and they were transfected into Sf9 cells cultivated in serum-free medium (Thermo Fisher Scientific). Four days post-transfection the culture supernatants containing virus were harvested and filter sterilized. […] A multiplicity of infection (MOI, ratio of virus to cells) of 4 was selected. Soluble glucosidase I was detected by anti-His western blots in the soluble cell extract following extraction with 1% V/V NP40 for 30 minutes at 0° C. Productions and purifications of glucosidase I were carried out at scales ranging from 1-liter to 10-liters. […] In another example production at the 10-liter scale was performed in stirred-tank bioreactors at 27° C. and 80 rpm with dissolved oxygen level at 50% of oxygen in air and pH between 7.0 and 7.2. Cells were transduced at MOI of 4 and the cell pellet was harvested at 48 hours post-transduction using centrifugation.
The pellet from a 10-liter culture was lysed by resuspending the pellet into 1-liter of 50 mM NaH2PO4—H2O+300 mM NaCl+10 mM Imidazole+1 mM PMSF+1% V/V NP40 pH 8. The suspension was incubated on ice for 30 minutes and clarified at 500×g and 4° C. The supernatant was collected and clarified at 20,000×g for 30 minutes at 4° C. and the supernatant was collected and filtered through a 0.2 micron filter. […] The column was washed with 20 column volumes (CV) of 50 mM NaH2PO4-H2O+300 mM NaCl+10 mM Imidazole pH 8 and eluted using a linear gradient of 0-60% 50 mM NaH2PO4-H2O+300 mM NaCl+500 mM Imidazole pH 8 over 90 minutes. at 5 mL per minute. Fractions (25 mL) were collected and analyzed by SDS PAGE and Western Blot (reducing anti-His). Fractions containing purified glucosidase I were pooled and dialyzed into storage buffer (20 mM Tris+300 mM NaCl+50 mM L-arginine+10 mM EDTA+0.01% V/V Tween 80 pH 7.5). The final material was filter sterilized and stored at 4° C. and the working dilution confirmed by a use-test in the indicated assay conditions prior to use.
Alpha-glucosidase I Assay: The assay was performed by incubating recombinant alpha-glucosidase I enzyme with multiple dilutions of test compounds for 60 minutes at 37° C. A synthetic trisaccharide substrate analog was then introduced to the mixture for 90 minutes at 37° C. The reaction was then stopped with 1.5M Tris (pH 8). In the absence of inhibition, the terminal glucose of the substrate was hydrolyzed by the enzyme. The D-glucose product was detected using Amplex Red Glucose/Glucose Oxidase Assay Kit (Invitrogen) following the manufacturer's directions where glucose oxidase reacts with D-glucose to form D-gluconolactone and H2O2 which then reacts with the Amplex Red reagent to generate a red-fluorescent oxidation product (560 nm, excitation; 590 nm, emission). […] Percent inhibition is plotted as a function of concentration for each compound, compared to control reactions. The IC50 was determined using a 4-PL curve fit and serves as a measure of relative inhibitory activity of each test compound (see Table 3).

[2] = molecular target: recombinant human GAA (acid alpha-glucosidase) (Homo sapiens, UniProt P10253); assay: Acid alpha-glucosidase (GAA) assay (4-methylumbelliferyl-alpha-D-pyranoside substrate, fluorescence)
Procedure: Acid alpha-glucosidase (GAA): To analyze inhibitory effects of a test compound, commercially available recombinant human GAA was incubated with multiple dilutions of test compound for 60 minutes at 37° C. 4-methylumbelliferyl-alpha-D-pyranoside was then introduced to the mixture as the substrate. 1,4-methyllumbelliferone is generated, and after an incubation for 20 minutes at 37° C., the reaction was stopped with the stop solution (0.5M glycine 0.3M NaOH pH 10). 1,4-methyllumbelliferone is detected by fluorescence (excitation at 365 nm, emission at 440 nm). Relative fluorescence compared to untreated enzymatic activity and test compound concentration is plotted as a function of percent inhibition. The IC50 is determined using a 4-PL curve fit as the measure of relative inhibitory activity of each test compound (see Table 3).

[3] = molecular target: rat maltase (partially purified alpha-glucosidase from intestinal rat powder); assay: Intestinal alpha-glucosidase assay, maltose substrate (Glucose GO Kit)
Procedure: (§1) Intestinal alpha-glucosidases (rat maltase and sucrase): Intestinal alpha-glucosidases act upon 1,4-alpha-glucoside bonds, breaking down disaccharides to glucose. To perform this assay, partially purified alpha-glucosidase from intestinal rat powder was incubated for 60 minutes at 37° C. with multiple dilutions of test compounds. Maltose or Sucrose respectively was then introduced as substrate to the mixture and incubated for 30 minutes at 37° C. The reaction was stopped by a 5-minute incubation at 90° C. and the resultant glucose production is detected using Sigma's Glucose GO Kit. Percent inhibition was then plotted as a function of concentration for each test compound. The IC50 was determined using a 4-PL curve fit and serves as the measure of relative inhibition of each test compound (see Table 3).

[4] = molecular target: rat sucrase (partially purified alpha-glucosidase from intestinal rat powder) (Rattus norvegicus, UniProt P23739); assay: Intestinal alpha-glucosidase assay, sucrose substrate (Glucose GO Kit)
Sequence of rat sucrase (partially purified alpha-glucosidase from intestinal rat powder) (P23739 whole entry): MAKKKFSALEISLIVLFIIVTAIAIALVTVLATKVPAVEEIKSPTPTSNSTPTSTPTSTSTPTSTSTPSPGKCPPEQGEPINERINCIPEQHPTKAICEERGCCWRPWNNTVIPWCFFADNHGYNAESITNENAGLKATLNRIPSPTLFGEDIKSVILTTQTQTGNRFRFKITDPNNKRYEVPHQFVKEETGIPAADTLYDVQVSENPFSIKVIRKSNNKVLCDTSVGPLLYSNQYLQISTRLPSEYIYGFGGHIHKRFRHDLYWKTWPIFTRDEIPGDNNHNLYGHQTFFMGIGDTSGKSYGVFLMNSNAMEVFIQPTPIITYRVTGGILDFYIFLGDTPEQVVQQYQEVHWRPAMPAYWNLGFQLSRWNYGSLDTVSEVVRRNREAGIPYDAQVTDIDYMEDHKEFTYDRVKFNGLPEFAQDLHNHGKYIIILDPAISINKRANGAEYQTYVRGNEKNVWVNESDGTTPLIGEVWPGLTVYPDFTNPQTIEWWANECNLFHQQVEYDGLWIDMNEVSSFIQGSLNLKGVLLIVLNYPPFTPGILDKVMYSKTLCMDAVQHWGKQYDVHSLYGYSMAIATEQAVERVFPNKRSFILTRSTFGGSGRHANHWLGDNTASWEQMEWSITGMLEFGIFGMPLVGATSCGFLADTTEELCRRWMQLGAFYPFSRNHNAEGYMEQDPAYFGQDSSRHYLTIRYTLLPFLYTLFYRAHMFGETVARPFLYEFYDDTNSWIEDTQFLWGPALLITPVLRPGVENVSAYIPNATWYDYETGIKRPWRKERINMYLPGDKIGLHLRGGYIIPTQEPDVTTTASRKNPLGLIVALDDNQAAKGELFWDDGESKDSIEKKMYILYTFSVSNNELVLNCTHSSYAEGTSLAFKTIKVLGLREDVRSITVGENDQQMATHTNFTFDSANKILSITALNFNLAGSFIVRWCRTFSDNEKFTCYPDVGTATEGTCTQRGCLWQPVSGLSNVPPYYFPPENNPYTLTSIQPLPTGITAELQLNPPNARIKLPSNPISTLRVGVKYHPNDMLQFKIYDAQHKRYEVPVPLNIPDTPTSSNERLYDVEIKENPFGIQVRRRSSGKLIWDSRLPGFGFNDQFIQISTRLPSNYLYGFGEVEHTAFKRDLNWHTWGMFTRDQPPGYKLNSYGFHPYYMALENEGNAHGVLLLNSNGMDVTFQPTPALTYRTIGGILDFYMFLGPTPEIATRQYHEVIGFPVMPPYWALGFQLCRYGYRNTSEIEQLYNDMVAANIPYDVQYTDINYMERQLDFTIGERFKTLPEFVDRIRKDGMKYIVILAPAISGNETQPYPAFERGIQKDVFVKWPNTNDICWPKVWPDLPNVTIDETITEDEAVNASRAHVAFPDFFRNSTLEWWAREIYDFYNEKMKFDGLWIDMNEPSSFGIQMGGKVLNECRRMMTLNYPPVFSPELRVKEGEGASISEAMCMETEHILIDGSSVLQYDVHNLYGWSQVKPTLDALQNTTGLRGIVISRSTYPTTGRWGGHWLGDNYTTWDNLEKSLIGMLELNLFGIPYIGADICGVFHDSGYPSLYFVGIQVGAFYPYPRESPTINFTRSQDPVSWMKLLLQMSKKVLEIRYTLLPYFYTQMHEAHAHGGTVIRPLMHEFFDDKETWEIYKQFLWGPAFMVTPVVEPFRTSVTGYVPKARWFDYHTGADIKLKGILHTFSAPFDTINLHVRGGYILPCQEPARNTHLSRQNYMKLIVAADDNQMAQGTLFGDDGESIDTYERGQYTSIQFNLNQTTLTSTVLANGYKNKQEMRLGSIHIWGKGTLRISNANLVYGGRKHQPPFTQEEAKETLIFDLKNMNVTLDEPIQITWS
Procedure: as §1

[5] = Glucosidase 1, read-out: Glu 1 IC50

Compound	pIC50 [1]	pIC50 [2]	pIC50 [3]	pIC50 [4]	pIC50 [1, 5]
O=[N+]([O-])c1cc(N2C3CCC2COC3)ccc1NCc1ccc(CN2CC(O)C(O)C(O)C2CO)cc1 (stereo in doubt) [Compound 1018, (2S,3S,4S,5R)-2-(hydroxymethyl)-1-({4-[({2-nitro-4-[(1R,5S)-3-oxa-8-azabicyclo[3.2.1]octan-8-yl]phenyl}amino)methyl]phenyl}methyl) piperidine-3,4,5-triol]	> 9.00	7.36	> 9.00	> 9.00	
[N-]=[N+]=Nc1ccc(NCCc2ccc(CCN3C[C@@H](O)[C@H](O)[C@@H](O)[C@@H]3CO)c3ccccc23)c([N+](=O)[O-])c1 (stereo in doubt) [Compound 1178, (2S,3S,4S,5R)-1-[2-(4-{2-[(4-azido-2-nitrophenyl)amino]ethyl}naphthalen-1-yl)ethyl]-2-(hydroxymethyl)piperidine-3,4,5-triol]		5.23	5.46	4.15	5.56
OC[C@@H]1[C@@H](O)[C@H](O)[C@@H](O)CN1CCCCCCNc1cc(-c2cccnn2)cc(C2CC2)c1 [Compound 1008, (2R,3R,4R,5S)-1-(6-{[3-cyclopropyl-5-(pyridazin-3-yl)phenyl]amino}hexyl)-2-(hydroxymethyl)piperidine-3,4,5-triol]	6.99	7.19	8.22	7.11	
OC[C@@H]1[C@@H](O)[C@H](O)[C@@H](O)CN1CCCCCCNc1cc(-c2ncccn2)cc(C2CC2)c1 [Compound 1009, (2R,3R,4R,5S)-1-(6-{[3-cyclopropyl-5-(pyrimidin-2-yl)phenyl]amino}hexyl)-2-(hydroxymethyl)piperidine-3,4,5-triol]		7.21	8.15	7.15	6.79
OC[C@@H]1[C@@H](O)[C@H](O)[C@@H](O)CN1Cc1ccc(CNc2cc(C3CC3)cc(N3CCOCC3)c2)cc1 [Compound 1010, (2R,3R,4R,5S)-1-{[4-({[3-cyclopropyl-5-(morpholin-4-yl)phenyl]amino}methyl)phenyl]methyl}-2-(hydroxymethyl)piperidine-3,4,5-triol]		6.44	7.92	7.02	6.70
OC[C@@H]1[C@@H](O)[C@H](O)[C@@H](O)CN1Cc1ccc(CNc2cc(-c3cccnn3)cc(C3CC3)c2)cc1 [Compound 1012, (2R,3R,4R,5S)-1-{[4-({[3-cyclopropyl-5-(pyridazin-3-yl)phenyl]amino}methyl)phenyl]methyl}-2-(hydroxymethyl)piperidine-3,4,5-triol]		6.46	8.05	7.48	7.74
OC[C@@H]1[C@@H](O)[C@H](O)[C@@H](O)CN1Cc1ccc(CNc2cc(-c3ncccn3)cc(C3CC3)c2)cc1 [Compound 1013, (2R,3R,4R,5S)-1-{[4-({[3-cyclopropyl-5-(pyrimidin-2-yl)phenyl]amino}methyl)phenyl]methyl}-2-(hydroxymethyl)piperidine-3,4,5-triol]		6.60	8.30	7.59	7.28
C[C@@H]1CN(c2ccc(NCc3ccc(CN4C[C@H](O)[C@@H](O)[C@H](O)[C@H]4CO)cc3)c([N+](=O)[O-])c2)C[C@H](C)O1 [Compound 1014]	9.00	7.52	8.22	7.82	
CS(=O)(=O)c1cc(Br)cc(NCc2cccc(CN3C[C@H](O)[C@@H](O)[C@H](O)[C@H]3CO)c2)c1 [Compound 1022, (2R,3R,4R,5S)-1-[(3-{[(3-bromo-5-methanesulfonylphenyl)amino]methyl}phenyl)methyl]-2-(hydroxymethyl)piperidine-3,4,5-triol]	7.72	6.10	7.55	7.59	
Cc1cc(NCc2cccc(CN3C[C@H](O)[C@@H](O)[C@H](O)[C@H]3CO)c2)cc(-c2ncccn2)c1 [Compound 1035, (2R,3R,4R,5S)-2-(hydroxymethyl)-1-{[3-({[3-methyl-5-(pyrimidin-2-yl)phenyl]amino}methyl)phenyl]methyl}piperidine-3,4,5-triol]	7.36	5.29	7.31	7.29	
CS(=O)(=O)c1cc(NCc2cccc(CN3C[C@H](O)[C@@H](O)[C@H](O)[C@H]3CO)c2)cc(-c2cccnn2)c1 [Compound 1040, (2R,3R,4R,5S)-2-(hydroxymethyl)-1-{[3-({[3-methanesulfonyl-5-(pyridazin-3-yl)phenyl]amino}methyl)phenyl]methyl}piperidine-3,4,5-triol]	7.77	5.89	7.42	6.90	
CS(=O)(=O)c1cc(NCc2cccc(CN3C[C@H](O)[C@@H](O)[C@H](O)[C@H]3CO)c2)cc(-c2ncccn2)c1 [Compound 1041, (2R,3R,4R,5S)-2-(hydroxymethyl)-1-{[3-({[3-methanesulfonyl-5-(pyrimidin-2-yl)phenyl]amino}methyl)phenyl]methyl}piperidine-3,4,5-triol]	7.77	5.72	7.10	6.73	
